From US8530454B2, “Use of 2,5-dihydroxybenzene compounds and derivatives for the treatment of psoriasis” (Amderma Pharmaceuticals, LLC, priority 2006, dated 2013)

How the values were obtained:
rat glioma C6 cells = experiment: Rat glioma C6 cell proliferation, crystal violet staining; assay type: cell-based; settings: 48 h; for C6 cell proliferation (percentage of control absorbance at 595 nm): 500 μM, p<0.001 vs control (FIG. 12)
Protocol: The cell line used was rat glioma C6 cells. The cells were cultured as previously described (Cuevas P et al. Neurol Res, 2005). The cells were cultured as adherent cells in Dulbecco's modified Eagle's medium, supplemented with 7.5% (v/v) of fetal bovine serum, 10 μg/ml of streptomycin and 10 units/ml of penicillin. The tumor cells were seeded in 24-well plates at a density of 10,000 cells/well, and were incubated at 37° C. in a humidified chamber with 5% CO2. Once adhered, the cells were treated or not (controls) with 2,5-dihydroxybenzoate at 100, 200, 500 or 1000 μM and they were allowed to proliferate for 48 h. After this time the glioma cell proliferation was evaluated by means of staining the fixed cells with crystal violet. The number of cells is proportional to the amount of retained dye, which was spectrophotometrically determined by measuring the absorbance at 595 nm once the dye was extracted from the cells.
(§1) The cell line used was the C6 cell line and the experiment was carried out as described in Example 2. Once adhered, the cells were treated or not (controls) with increasing concentrations of 2,5-DHC (10, 25, 50 and 100 μM) and they were allowed to proliferate for 48 h. After this time the glioma cell proliferation was evaluated by means of staining the fixed cells with crystal violet. The number of cells is proportional to the amount of retained dye, which was determined spectrophotometrically by measuring absorbance at 595 nm once the dye was extracted from the cells.
as §1, with “examples 2 and 3.” for “Example 2.”, “(5A-2HBS) (500 μM) or (2A-5HBS) (500” for “increasing concentrations of 2,5-DHC (10, 25, 50 and 100”, “measuring the” for “measuring”

[1] = system: bFGF-induced fibrosis in rat adipose tissue; experiment: bFGF-induced fibrosis around subcutaneously implanted gelatin sponges; assay type: in vivo, Sprague-Dawley rats; settings: 100 μM in sponge with bFGF and heparin, 7 days, vs bFGF alone
Protocol: Sterile gelatin sponges (1 mm^3; Curaspon Dental, Clinimed Holding, Zwanenburg, The Netherlands) were subcutaneously implanted in the dorsal region of the neck in Sprague-Dawley rats after the induction of intraperitoneal anesthesia. The animals were split into two groups: group A, the sponges were moistened with 200 μl of saline solution which contained 25 μg/ml of heparin and 10 μg/ml of basic FGF (bFGF); group B, the sponges were moistened in the same solution as in group A, but which solution farther contained 2,5-dihydroxybenzoate (100 μM). After 7 days, the sponges and the surrounding subcutaneous fat were removed and histologically analyzed.

[2] = system: mitogenesis induced by fibroblast growth factor-1 (FGF-1) in Balb/c 3T3 fibroblasts; experiment: Inhibition of FGF-1-induced mitogenesis in quiescent Balb/c 3T3 fibroblasts; assay type: cell-based; settings: quiescent Balb/c 3T3 cultures; potassium salts, calcium salt for 2-acetoxy-5-hydroxybenzene sulfonate
Protocol: The evaluated compounds were used in the form of potassium salt, except in the first case which used calcium salt. The experiments were carried out as described in Fernández-Tornero C et al. J Biol Chem, 2003.

[3] = biological target: fibroblast growth factor-1 (FGF-1) (Homo sapiens, UniProt P05230); experiment: Crystal diffraction of co-crystal complexes with FGF-1; assay type: binding; settings: electron density contoured at 1σ; for acetoxyl groups retained when bound to FGF-1: co-crystal; for binding site on FGF-1 in the co-crystal: reference lysine 132
Protocol: Based on the crystal diffraction of the FGF-1:2-acetoxy-5-hydroxybenzene sulfonic acid, FGF-1:5-acetoxy-2-hydroxybenzene sulfonic acid and FGF-1:2,5-diacetoxybenzene sulfonic acid complexes, the structures of the complexes were calculated and represented. FIGS. 13, 14 and 15, which show the surface of the dyed protein according to its electrostatic potential (light grey, negative charge; dark grey, positive charge; white, regions with no charge), show the manner in which 2-acetoxy-5-hydroxybenzene sulfonic acid, 5-acetoxy-2-hydroxybenzene sulfonic acid and 2,5-diacetoxybenzene sulfonic acid interact, respectively, with FGF-1.

[4] = system: subcutaneous gliomas from implanted rat glioma C6 cells; experiment: Progression of established subcutaneous C6 gliomas in rats; assay type: in vivo; settings: 100 mg/kg/day i.p. for 10 days
Protocol: Rat C6 glioma cells were cultured as previously described (Cuevas P et al. Neurol Res, 2005). The C6 cells cultured to confluence in 75 cm^2 flasks were removed and implanted under the abdominal skin in anesthetized rats. The existence of a tumor in the implantation area was observed five days after the implantation of the tumor cells. Only the rats in which the existence of a tumor was observed were randomly assigned to be treated with daily intraperitoneal injections of 2,5-dihydroxybenzene sulfonate (DHBS; 100 mg/kg/day), 2,5-diacetoxybenzene sulfonate (DABS; 100 mg/kg/day) or the carrier (0.9% NaCl). After 10 days of treatment, the subcutaneous gliomas were removed and their volume was calculated according to the formula V=4/3π·(L/2)·(A/2)^2 (in mm^3) where L is the larger diameter and A is the smaller diameter, both expressed in mm.

[5] = system: tumor cells of subcutaneous gliomas; experiment: Apoptosis in sections of established subcutaneous gliomas (hematoxylin and eosin); assay type: in vivo, rat; settings: 100 mg/kg/day i.p. for 10 days, vs carrier (very scarce)
Text: Tumor cells elude the programmed cell death process or apoptosis that normal cells experience. Apoptosis induction in tumor cells is one way to confront the development of a tumor. To evaluate the effect of potassium 2,5-dihydroxybenzene sulfonate […] on tumor cell apoptosis, 6 μm thick sections of the subcutaneous gliomas described in example 4 were made. The sections were stained with hematoxylin and eosin and observed at a magnification of 313 times using immersion oil. In these conditions, cell apoptosis is shown by the existence of apoptotic bodies appearing as strongly chromogenic granules in the cell nucleus which is frequently fragmented.

[6] = system: human prostate cancer PC-3 cells; experiment: Human tumor cell proliferation (XTT), PC-3; assay type: cell-based; settings: 1-200 μM, 96 h
Protocol: (§2) The cell lines used were the human prostate cancer PC-3 cells and human lung cancer A549 cells. 2000 cells were seeded per well in 96-well plates and they were allowed to adhere overnight. Then the cells were treated or not (controls) with potassium 2,5-diacetoxybenzene sulfonate (DABS) (1-200 μM) and they were allowed to proliferate for 96 h. After this time, the PC-3 and A549 cell proliferation was evaluated by determining the final number of cells by means of the viability method of yellow tetrazolium salt (XTT). The data were expressed as a percentage of the control (without treatment).

[7] = system: human lung cancer A549 cells; experiment: Human tumor cell proliferation (XTT), A549; assay type: cell-based; settings: 1-200 μM, 96 h
Protocol: as §2

[8] = system: subcutaneous tumors from human prostate cancer PC-3 cells; experiment: Subcutaneous PC-3 prostate cancer cell implantation model in athymic mice; assay type: in vivo, athymic mice (Nu/Nu); settings: 100 mg/kg daily i.p. for 15 days, vs carrier
Protocol: 5×10^6 human prostate cancer PC-3 cells were subcutaneously injected in male athymic mice (Nu/Nu) of 6-8 weeks of age and weighing 20-26 g. Ten days after the implantation of the tumor cells, the mice were randomly split into two groups: one of them received a daily injection of potassium 2,5-diacetoxybenzene sulfonate (DABS) by intraperitoneal route at a dose of 100 mg/kg dissolved in saline (0.9% NaCl) whereas the other group received a daily injection of carrier (saline). The treatments were administered for 15 days. The volumes of the tumors induced by the implantation of PC-3 cells were measured through the skin on alternating days using a Vernier caliper. The volume was calculated using the formula V=(D×2d)/2, where D is the larger diameter in mm, d is the smaller diameter in mm and V is the volume in mm3. At the end of treatment, the mice were sacrificed and the tumors were weighed.

fibroblast growth factor-1 (FGF-1), sequence (P05230 whole entry, species assumed): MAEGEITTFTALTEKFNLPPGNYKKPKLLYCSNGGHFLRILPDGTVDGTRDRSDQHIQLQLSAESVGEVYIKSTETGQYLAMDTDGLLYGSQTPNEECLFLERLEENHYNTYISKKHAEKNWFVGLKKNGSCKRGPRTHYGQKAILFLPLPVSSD

O=C(O)C=Cc1cc(O)ccc1O [2,5-DHC, 3-(2,5-dihydroxyphenyl)-2-propenoic acid]
C6 cell proliferation relative to control (rat glioma C6 cells; 50 μM): less than half
C6 cell proliferation relative to control (rat glioma C6 cells; 100 μM): one tenth

O=C([O-])c1cc(O)ccc1O.[K+] [2,5-dihydroxybenzoate, potassium 2,5-dihydroxybenzoate]
bFGF-induced fibrosis (fibroblasts in septa of connective tissue of adipose tissue) [1]: reduces bFGF-induced fibrosis
C6 cell proliferation (absorbance at 595 nm) (rat glioma C6 cells; 100, 200, 500 and 1000 μM): inhibited rat glioma C6 cell proliferation in a concentration-dependent manner
statistical significance of inhibition of C6 cell proliferation vs control (rat glioma C6 cells; 500 and 1000 μM, p<0.001 (FIG. 2)): statistically significant

CC(=O)Oc1ccc(O)cc1S(=O)(=O)[O-].[K+] [2A-5HBS, potassium 2-acetoxy-5-hydroxybenzene sulfonate]
C6 cell proliferation (percentage of control absorbance at 595 nm) (rat glioma C6 cells): caused the inhibition of rat glioma cell proliferation
inhibition of mitogenesis induced by FGF-1 [2]: inhibition of mitogenesis induced by FGF-1
acetoxyl groups retained when bound to FGF-1 [3]: conserve the acetoxyl groups
binding site on FGF-1 in the co-crystal [3]: occupy a site that is very close to the one that has been described occupied by 2,5-dihydroxybenzene sulfonic acid

CC(=O)Oc1ccc(O)c(S(=O)(=O)[O-])c1.[K+] [5A-2HBS, potassium 5-acetoxy-2-hydroxybenzene sulfonate]
C6 cell proliferation (percentage of control absorbance at 595 nm) (rat glioma C6 cells): caused the inhibition of rat glioma cell proliferation
inhibition of mitogenesis induced by FGF-1 [2]: inhibition of mitogenesis induced by FGF-1
acetoxyl groups retained when bound to FGF-1 [3]: conserve the acetoxyl groups
binding site on FGF-1 in the co-crystal [3]: occupy a site that is very close to the one that has been described occupied by 2,5-dihydroxybenzene sulfonic acid

CC(=O)Oc1ccc(OC(C)=O)c(S(=O)(=O)[O-])c1.[K+] [DABS, potassium 2,5-diacetoxybenzene sulfonate]
rats tumor-free when treatment ended ([4]; all rats had established tumors before treatment): 4 rats
probability of being tumor-free (χ2 test), DABS group vs DHBS group ([4]; p<0.05): greater probability of being tumor-free
tumor cells in apoptosis in glioma sections [5]: a large number of tumor cells in apoptosis
PC-3 cell proliferation (percentage of control) [6]: significant inhibition
A549 cell proliferation (percentage of control) [7]: significant inhibition
tumor growth (tumor volume through the skin) ([8]; start 10 days after implantation): significantly reduced
weight of the extracted tumor when treatment ended ([8]; p<0.05): significant reduction of the weight
inhibition of mitogenesis induced by FGF-1 [2]: inhibition of mitogenesis induced by FGF-1
acetoxyl groups retained when bound to FGF-1 [3]: conserve the acetoxyl groups
binding site on FGF-1 in the co-crystal [3]: occupy a site that is very close to the one that has been described occupied by 2,5-dihydroxybenzene sulfonic acid

O=S(=O)([O-])c1cc(O)ccc1O.[K+] [DHBS, potassium 2,5-dihydroxybenzene sulfonate, reference compound]
average size (volume) of subcutaneous gliomas ([4]; treatment from day 5 after implantation, vs carrier): less than that of the rats treated with carrier
inhibition of mitogenesis induced by FGF-1 [2]: inhibition of the mitogenesis
